Assay [1] deals with T1, Aβ oligomers (Homo sapiens, UniProt P05067).
T1 construct: a depsipeptide derivative of Aβ(1–42) was utilized; made in house; host or cells: chemical peptide synthesis (no expression host)
In words: Isothermal titration calorimetry (ITC) with Aβ oligomers. It counts as binding. The method, then:
(§1) Binding of 7 to the Aβ oligomers was monitored by means of isothermal titration calorimetry (ITC). […] The titrations were run at 288 K in order to improve the signal to noise ratio, and just above the precipitation limit as the ITC method is sensitive to the thermal noise caused by the stirring of large particles. […] These values strongly supported tight binding between the Aβ oligomer species and 7.
Isothermal titrations were performed with a Microcal VP-ITC microcalorimeter. The binding experiments were performed in PBS pH 7.4. The buffer solution was degassed. The concentrations of the ligands and Aβ were corrected for the material content. In individual titrations, 10 μL of ligand was injected from the computer-controlled 300-μL microsyringe at intervals of 300 s into the Aβ oligomer solution dissolved in the same buffer as the ligand. The microsyringe stirring was set to 295 rpm. All measurements were made at 288 K. The Aβ concentrations in the cell were either 72 μM or 36 μM, and the concentrations of 7 were 175 μM and 222 μM respectively. The total ligand concentration was set in the syringe so that the titration stopped when the precipitation became excessive. Control experiments were performed by injecting the ligand into a cell containing buffer with no target, and the heats of dilution were subtracted from those measured in the presence of Aβ. Titrations were also performed with buffer in the syringe and Aβ oligomer sample in the cell to check for the heat response of Aβ dilution itself. The dilution heat of the Aβ oligomer samples was constant and negligible. Since the target is inherently inhomogeneous, and an a priori model of the binding events is not available,. the experimental data were fitted to the two independent site binding model by using a nonlinear least-squares procedure, with ΔHb, ΔHb', Ka, Ka' (association constants), N and N' (number of binding sites for monomer), as adjustable parameters. The exothermic peaks appearing after the fully precipitated phase was reached, were omitted from the regression.
In general terms: In ITC the heat of successive injections is recorded.

The subject of assay [2] is LTP in mouse hippocampal slices impaired by Aβ(1–42) oligomers. In words: Ex vivo hippocampal slice LTP electrophysiology. It counts as cell-based. From the text:
We investigated whether 7 could protect against the synaptic plasticity damage caused by Aβ(1–42) oligomers by using a hippocampus slice LTP model. LTP, a correlate of learning and memory has been repeatedly shown to be impaired by Aβ(1–42) oligomers. As negative control, substance 11 was applied. The experimenters were blind to the compounds tested.
These observations indicate the significant protective effect of 7 (Figure 12D). To test the effects of valency, LTP experiments were repeated with 8 under the same conditions.
Via standard procedures, 350-µm-thick transverse hippocampal slices were prepared from the brain of 7-months-old mice (CD1, Animal Breeding Facility, University of Szeged) with a McIlwain tissue chopper (Campden Instruments, Loughborough, UK). Slices were incubated in standard artificial cerebrospinal fluid (ACSF) at ambient temperature for 60 min, during constant gassing with 95% O2–5% CO2. The ACSF contained (mM): NaCl, 130; KCl, 3.5; CaCl2, 2; MgCl2, 2; NaH2PO4, 0.96; NaHCO3, 24; and D-glucose, 10 (pH 7.4). Individual slices were transferred to a 3D-MEA chip with 60 tip-shaped and 60-μm-high electrodes spaced at 100 μm (Ayanda Biosystems, S.A., Lausanne, Switzerland). The slice was continuously perfused with oxygenated ACSF (1.5 ml min^−1 at 34 °C) containing 720 nM Aβ(1–42) oligomers and/or 950 nM ligand throughout the recording session. Data were recorded with a standard, commercially available MEA setup (Multi Channel Systems MCS GmbH, Reutlingen, Germany). The Schaffer-collateral was stimulated by injecting a biphasic current waveform (−100/+100 μs) through one selected electrode at 0.033 Hz. Care was taken to choose the stimulating electrode in the same region from one slice to the other. The peak-to-peak amplitudes of fEPSPs at the stratum pyramidale and stratum radiatum of CA1 were analyzed. After a 30-min incubation period, the threshold and the maximum of stimulation intensity for evoke responses was determined. To evoke responses, 30% of the maximal stimulation intensity was used. LTP was induced by applying a theta-burst stimulation (TBS) pattern at the maximal stimulation intensity. The TBS comprised four trains administered at 20-s intervals with 10 bursts given at 5 Hz per train and 4 pulses at 100 Hz per burst. Statistical analysis was carried out by using two-tailed Student's t-test. For representative raw data see Figure S12.

For assay [3], the target named is T1, Aβ oligomers. In words: Ligand-induced precipitation during ITC titration, followed by DLS. Conditions: 72 μM Aβ oligomer. The procedure:
as §1
For DLS measurements, 500 µL Aβ(1–42) solution (c = 72 µM) was prepared in PBS, and placed in a low–volume sizing cell. Size distribution was measured at 25°C on a Malvern Zetasizer Nano ZS Instrument (Malvern Instruments Ltd. Worcestershire, UK) equipped with a He-Ne laser (633 nm) by means of Non-Invasive Back Scatter (NIBS®) technology, which involves detection of the scattered light at an angle of 173°. A titration routine was formulated consisting of 12 independent measurements with a 2-min delay after each. The calculated amount of 7 solution was added to the Aβ after every second measurement. During the titration, the molar quantity of 7 varied between 0–35 µM. For a single measurement, the correlation function and distribution of the apparent hydrodynamic diameter (dh) over the scattered intensity of the particles were determined on the basis of 14 scans. […]

The mark [4] stands for this setting: 72 μM Aβ oligomer in cell, 288 K, PBS pH 7.4, read-out: KD (ITC; first binding step for 7, single stage for the others).
Where [5] appears, read: read-out: KD (ITC), given as bound, 72 μM Aβ oligomer, 288 K.
Setting [6] is: read-out: KD (ITC; first binding step for 7, single stage for the others), 72 μM Aβ oligomer in cell, 288 K, PBS pH 7.4.

Entries after “also recorded” stand apart in the source; their conditions may differ. Like-named read-outs stand apart in the source and are kept apart here. Ends that are not written are not given here. A value given as a limit tells only on which side of the number the result lay.

What is called Kd is the concentration at which binding is half-saturated.

As for “11: 6 coupled to the G0-PAMAM template; negative control with Gly7 tentacles (GGGGGGGC-NH2; not fully specified (residue 8); also: coupled to tetravalent G0-PAMAM template) [Compound 11]”, the “Tight binding to the Aβ oligomer species in ITC (in words)” value with Aβ oligomers [1] (72 μM Aβ oligomer) was “the curve fitting did not converge; also recorded: did not reveal any tight binding”. Further, the “LTP (potentiation) with Aβ(1–42) oligomers and ligand together” value in assay [2] (720 nM Aβ(1–42) oligomers + 950 nM ligand, 180 min after LTP induction, mean ±SEM) turned out to be 130±3%. Moreover, in assay [2] (950 nM ligand, no Aβ oligomers, mean ±SEM), the “LTP (potentiation) with ligand alone” value stood at 200±14%.
Consider `N=C(N)NCCC[C@@H](CC(=O)N[C@H]1CCCC[C@@H]1C(=O)N[C@H]1CCCC[C@@H]1C(=O)N[C@@H](CC(=O)O)CC(=O)N[C@H]1CCCC[C@@H]1C(N)=O)NC(=O)[C@H]1CCCC[C@@H]1N` [Compound 1], for which the Kd at Aβ oligomers [1] (setting [4]) is 2.38 ± 0.214 µM; on Aβ oligomers [1] (72 μM Aβ oligomer, 288 K, read-out: KD (ITC), given as bound), > 2 µM.
`N=C(N)NCCC[C@@H](CC(=O)N[C@H]1CCCC[C@@H]1C(=O)N[C@H]1CCCC[C@@H]1C(=O)N[C@@H](CC(=O)O)CC(=O)N[C@H]1CCCC[C@@H]1C(=O)NCC(=O)NCC(=O)N[C@@H](CSC1CC(=O)N(CCCCN2C(=O)CC(SC[C@H](NC(=O)CNC(=O)CNC(=O)[C@H]3CCCC[C@@H]3NC(=O)C[C@H](CC(=O)O)NC(=O)[C@H]3CCCC[C@@H]3NC(=O)[C@H]3CCCC[C@@H]3NC(=O)C[C@H](CCCNC(=N)N)NC(=O)[C@H]3CCCC[C@@H]3N)C(N)=O)C2=O)C1=O)C(N)=O)NC(=O)[C@H]1CCCC[C@@H]1N` (stereo partly drawn) [Compound 8]: the equilibrium dissociation constant (Kd) at Aβ oligomers [1] (setting [4]) was found to be 0.721 ± 0.12 µM. Besides, at Aβ oligomers [1] (72 μM Aβ oligomer, 288 K), the “ΔHb (ITC; first binding step for 7, single stage for 8)” value came to 1.1 ± 0.12 kcal/mol. For the same compound, on Aβ oligomers [3], the “Concentration-dependent precipitation of Aβ oligomers during titration (ITC/DLS)” value was “Neither 8 nor 1 led to concentration-dependent precipitation”. Besides, the “Rescue of LTP from toxic Aβ oligomers (in words)” value in assay [2] (720 nM Aβ(1–42) oligomers + 950 nM ligand) was “No rescue from the toxic Aβ oligomers was observed”.
For the compound `NC(=O)[C@H](CSC1CC(=O)N(CCC(=O)NCCNC(=O)CCN(CCC(=O)NCCNC(=O)CCN2C(=O)CC(SC[C@H](NC(=O)CNC(=O)CNC(=O)[C@H]3CCCC[C@@H]3NC(=O)C[C@H](CO)NC(=O)[C@H]3CCCC[C@@H]3NC(=O)[C@H]3CCCC[C@@H]3NC(=O)C[C@H](CO)NC(=O)[C@H]3CCCC[C@@H]3N)C(N)=O)C2=O)CCN(CCC(=O)NCCNC(=O)CCN2C(=O)CC(SC[C@H](NC(=O)CNC(=O)CNC(=O)[C@H]3CCCC[C@@H]3NC(=O)C[C@H](CO)NC(=O)[C@H]3CCCC[C@@H]3NC(=O)[C@H]3CCCC[C@@H]3NC(=O)C[C@H](CO)NC(=O)[C@H]3CCCC[C@@H]3N)C(N)=O)C2=O)CCC(=O)NCCNC(=O)CCN2C(=O)CC(SC[C@H](NC(=O)CNC(=O)CNC(=O)[C@H]3CCCC[C@@H]3NC(=O)C[C@H](CO)NC(=O)[C@H]3CCCC[C@@H]3NC(=O)[C@H]3CCCC[C@@H]3NC(=O)C[C@H](CO)NC(=O)[C@H]3CCCC[C@@H]3N)C(N)=O)C2=O)C1=O)NC(=O)CNC(=O)CNC(=O)[C@H]1CCCC[C@@H]1NC(=O)C[C@H](CO)NC(=O)[C@H]1CCCC[C@@H]1NC(=O)[C@H]1CCCC[C@@H]1NC(=O)C[C@H](CO)NC(=O)[C@H]1CCCC[C@@H]1N` (stereo partly drawn) [Compound 9], the “Tight binding to the Aβ oligomer species in ITC (in words)” value on Aβ oligomers [1] (72 μM Aβ oligomer) is on record as “did not reveal any tight binding”. For the same compound, at Aβ oligomers [1] (72 μM Aβ oligomer, 288 K), the “N (ITC stoichiometry, number of binding sites for monomer; first or single stage)” value was found to be 0.03. Besides, the dissociation constant (Kd) at Aβ oligomers [1] (setting [5]) is > 2 µM; on Aβ oligomers [1] (setting [6]) it was 2.24 ± 0.198 µM.
For `N=C(N)NCCC[C@@H](CC(=O)N[C@H]1CCCC[C@@H]1C(=O)N[C@@H](CC(=O)O)CC(=O)N[C@H]1CCCC[C@@H]1C(=O)N[C@H]1CCCC[C@@H]1C(=O)NCC(=O)NCC(=O)N[C@@H](CSC1CC(=O)N(CCC(=O)NCCNC(=O)CCN(CCC(=O)NCCNC(=O)CCN2C(=O)CC(SC[C@H](NC(=O)CNC(=O)CNC(=O)[C@H]3CCCC[C@@H]3NC(=O)[C@H]3CCCC[C@@H]3NC(=O)C[C@H](CC(=O)O)NC(=O)[C@H]3CCCC[C@@H]3NC(=O)C[C@H](CCCNC(=N)N)NC(=O)[C@H]3CCCC[C@@H]3N)C(N)=O)C2=O)CCN(CCC(=O)NCCNC(=O)CCN2C(=O)CC(SC[C@H](NC(=O)CNC(=O)CNC(=O)[C@H]3CCCC[C@@H]3NC(=O)[C@H]3CCCC[C@@H]3NC(=O)C[C@H](CC(=O)O)NC(=O)[C@H]3CCCC[C@@H]3NC(=O)C[C@H](CCCNC(=N)N)NC(=O)[C@H]3CCCC[C@@H]3N)C(N)=O)C2=O)CCC(=O)NCCNC(=O)CCN2C(=O)CC(SC[C@H](NC(=O)CNC(=O)CNC(=O)[C@H]3CCCC[C@@H]3NC(=O)[C@H]3CCCC[C@@H]3NC(=O)C[C@H](CC(=O)O)NC(=O)[C@H]3CCCC[C@@H]3NC(=O)C[C@H](CCCNC(=N)N)NC(=O)[C@H]3CCCC[C@@H]3N)C(N)=O)C2=O)C1=O)C(N)=O)NC(=O)[C@H]1CCCC[C@@H]1N` (stereo partly drawn) [Compound 10] the same measures were “did not reveal any tight binding”, 0.10, > 2 µM and 2.75 ± 0.301 µM.
“Aβ(1–42) oligomer: synaptotoxic Aβ(1–42) oligomers prepared from Ser26 depsipeptide iso-Aβ(1–42) at pH 7.4 [reference compound]”: the “LTP (potentiation) with Aβ(1–42) oligomer alone” value in assay [2] (720 nM Aβ(1–42) oligomer, untreated slices 175±5%) is recorded as 128±5%.
